Test results: publication PMC11411213 (Journal of Molecular Cell Biology, 2024)

Columns and labels:
[1] = test system: intracellular ROS levels in Calu-3 cells; assay type: cell-based, human
[2] = test system: Calu-3 cells
[3] = in vitro; settings: human
[4] = test system: pseudotyped vesicular stomatitis virus (VSV) that contains SARS-CoV-2 Spike protein; assay type: cell-based
[5] = test system: SARS-CoV-2 Delta strain; settings: mouse, in vivo

Compound | intracellular ROS levels after 24 h treatment [1] | cytotoxic activity (in words) [2] | CC50 [3] | CC50 [2] | also measured
N[C@@H](CCC(=O)N[C@@H](CS)C(=O)NCC(=O)O)C(=O)O [GSH, glutathione] | reduced ROS levels | – | – | – | –
O=C(O)c1cc(/N=N/c2ccc(S(=O)(=O)Nc3ccccn3)cc2)ccc1O [Sulfasalazine] | – | no cytotoxicity at any of the tested concentrations | > 500 µM | – | –
COc1cc(Nc2ncc(F)c(Nc3ccc4c(n3)NC(=O)C(C)(C)O4)n2)cc(OC)c1OC [Tamatinib] | – | cytotoxic in the micromolar range | 5.74 ± 0.354 µM | – | –
COc1cc2c(Nc3ccc(Br)cc3F)ncnc2cc1OCC1CCN(C)CC1 [Vandetanib] | – | cytotoxic in the micromolar range | 3.76 ± 0.132 µM | – | –
MKI-1 | – | cytotoxic in the high nanomolar range | – | 0.892 ± 0.001 µM | –
N-acetyl cysteine [NAC] | reduced ROS levels | – | – | > 5000 µM | effect on SARS-CoV-2 entry (Spike pseudovirus luciferase) [4]: did not observe any effect; IHC analysis of the N protein in the lungs [5]: confirmed by immunohistochemistry; levels of viral transcripts N and RdRp in lungs (qPCR) [5]: significantly lower levels of viral transcripts than untreated mice
imidazole ketone erastin [IKE] | reduced the basal ROS level | – | – | 9.29 ± 0.324 µM | intracellular ROS levels after SARS-CoV-2 infection with 24 h pretreatment [1]: prevented virus-induced ROS bursts; intracellular ROS levels over time after administration [1]: biphasic trend, with an initial increase at early time points (0–6 h) followed by a substantial decrease at a later time point (24 h)
